From patent US20180263996A1, “ARYL SULTAM DERIVATIVES AS RORc MODULATORS” (Genentech, Inc., priority 2015, published 2018) come the findings set out here.

The assay addresses T1, RORc (Homo sapiens, UniProt P51449).
T1 construct: host or cells: E. coli
T1 sequence (P51449 269-508 limits assumed): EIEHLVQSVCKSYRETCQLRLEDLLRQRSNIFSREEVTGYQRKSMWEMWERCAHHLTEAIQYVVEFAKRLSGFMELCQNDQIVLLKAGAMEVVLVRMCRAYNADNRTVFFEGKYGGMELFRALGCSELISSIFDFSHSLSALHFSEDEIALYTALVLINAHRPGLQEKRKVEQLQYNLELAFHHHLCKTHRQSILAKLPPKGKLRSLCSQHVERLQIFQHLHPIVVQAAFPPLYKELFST
Nature of the assay: In Vitro RORc Ligand Binding Assay. Particulars: IC50 values for RORc. As to the method:
This assay was used to determine a compound's potency in inhibiting activity of RORc by determining, Kiapp, IC50, or percent inhibition values.
On day of the assay, 100 uL of 0.05% CHAPS (in deionized H2O) was added to all wells of the GFB Unifilter plate and allowed soak for 1 h. A wash buffer of 50 mM HEPES (pH 7.4), 150 mM NaCl, and 5 mM MgCl2 was prepared to wash the filter plate. To prepare an assay buffer, BSA was added to the wash buffer to reach 0.01% and DTT was added to reach 1 mM.
The 20× compound stocks were diluted in DMSO with Assay Buffer 4-fold to reach 5× the final test concentration in 25% DMSO (10 uL compound+30 uL Assay Buffer). Solutions were mixed by aspiration several times with a pipette set on 50 uL volume.
For two point screening, 10 mM stock compound solutions were diluted in DMSO to obtain 200 uM (20× the high test concentration) and then diluted 10-fold further to reach 20 uM (20× the low test concentration). The 20× stocks were diluted 4-fold with Assay Buffer (10 uL compound+30 uL Assay Buffer) to reach 5× the test concentrations (50 uM and 5 uM) and 10 uL were added to two assay plates for the duplicate wells. With each concentration tested on 2 plates, each set of 80 compounds used 4 assay plates (1 uM and 10 uM, with n=2).
For 25-hydroxycholesterol in 25% DMSO/75% Assay Buffer; 10 uL per well was used for NSB samples. Wells for Total Binding and No Receptor sample determination contained 10 uL of 25% DMSO/75% Assay Buffer per well.
Add 20 uL to all wells to reach 6 nM final concentration in the assay.
Stock receptor solution was diluted in assay buffer to obtain 1.5 ug/mL in Assay Buffer. 20 uL was added to all wells. For No Receptor samples, 20 uL Assay Buffer was substituted for receptor solution.
Assay plates were 96-well polypropylene V-bottom plates. […] 10 uL of 25% DMSO/75% Assay Buffer was added to Total Binding or No Receptor wells. 10 uL of 5 uM 25-hydroxycholesterol in 25% DMSO/75% Assay Buffer was added to NSB wells. […] 20 uL of 1.5 ug/mL RORc receptor was added to wells (or 40 uL Assay Buffer to No R wells). Following addition to the wells, the plates were incubated 3 h at 25° C.
Using a Packard Filtermate Harvester, the filter plate were washed 4 times following transfer of the incubated samples. Plates were dry-filtered completely (2 h at 50° C. or overnight at room temperature). 50 uL Microscint 0 was added to all wells and read on Topcount protocol Inverted.
Final concentrations were as follows: 50 mM HEPES buffer (pH 7.4); 150 mM NaCl; 1 mM DTT; 5 mM MgCl2; 0.01% BSA; 5% DMSO; 0.6 ug/mL RORc receptor; 6 nM 25-[^3H]hydroxycholesterol. For NSB wells, 1 uM 25-hydroxycholesterol was also present.

For orientation: IC50 means the point on the concentration scale where inhibition reaches its midpoint. High values mean a need for much substance, low ones inhibition by little substance. For the compound `C[C@H]1CC[C@H](c2ccccc2)S(=O)(=O)N1Cc1ccc(C2(C(=O)NC3(C#N)CC3)CCOCC2)cc1F` (stereo in doubt) [Compound 36, N-(1-cyanocyclopropyl)-4-[3-fluoro-4-[[(3S,6R)-3-methyl-1,1-dioxo-6-phenyl-thiazinan-2-yl]methyl]phenyl]tetrahydropyran-4-carboxamide], the half-inhibitory concentration (IC50) was 234 nM. In the case of `C[C@H]1CC[C@H](c2ccccc2)S(=O)(=O)N1Cc1cc(F)c(C2(NC(=O)C3CC3)COC2)cc1F` (stereo in doubt) [Compound 46, N-[3-[2,5-difluoro-4-[[(3S,6R)-3-methyl-1,1-dioxo-6-phenyl-thiazinan-2-yl]methyl]phenyl]oxetan-3-yl]cyclopropanecarboxamide] it was 33.1 nM.

The compound `Cc1cc(C(=O)NC(C)c2cc(F)c(CN3[C@@H](C)CC[C@H](c4ccccc4)S3(=O)=O)cc2F)no1` (stereo in doubt) [Compound 51, N-[1-[2,5-difluoro-4-[[(3S,6R)-3-methyl-1,1-dioxo-6-phenyl-thiazinan-2-yl]methyl]phenyl]ethyl]-5-methyl-isoxazole-3-carboxamide] came in with a half-maximal inhibitory concentration (IC50) of 7 nM.

In turn, `Cc1n[nH]cc1C(=O)NC(C)c1cc(F)c(CN2[C@@H](C)CC[C@H](c3ccccc3)S2(=O)=O)cc1F` (stereo in doubt) [Compound 53, N-[1-[2,5-difluoro-4-[[(3S,6R)-3-methyl-1,1-dioxo-6-phenyl-thiazinan-2-yl]methyl]phenyl]ethyl]-3-methyl-1H-pyrazole-4-carboxamide] registered an IC50 of 14 nM. This IC50 is about 2-fold higher than that of the compound before. Compound `CC(NC(=O)c1ccno1)c1cc(F)c(CN2[C@@H](C)CC[C@H](c3ccccc3)S2(=O)=O)cc1F` (stereo in doubt) [Compound 55, N-[1-[2,5-difluoro-4-[[(3S,6R)-3-methyl-1,1-dioxo-6-phenyl-thiazinan-2-yl]methyl]phenyl]ethyl]isoxazole-5-carboxamide] displayed an IC50 of 11 nM. In the case of `Cc1cc(C(=O)NC(C)c2cc(F)c(CN3[C@@H](C)CC[C@H](c4ccccc4)S3(=O)=O)cc2F)[nH]n1` (stereo in doubt) [Compound 56, N-[1-[2,5-difluoro-4-[[(3S,6R)-3-methyl-1,1-dioxo-6-phenyl-thiazinan-2-yl]methyl]phenyl]ethyl]-3-methyl-1H-pyrazole-5-carboxamide] it was 107 nM; in that of `CC(NC(=O)c1cnccn1)c1cc(F)c(CN2[C@@H](C)CC[C@H](c3ccccc3)S2(=O)=O)cc1F` (stereo in doubt) [Compound 57, N-[1-[2,5-difluoro-4-[[(3S,6R)-3-methyl-1,1-dioxo-6-phenyl-thiazinan-2-yl]methyl]phenyl]ethyl]pyrazine-2-carboxamide], 145 nM; in that of `CC(NC(=O)c1ccn(C)n1)c1cc(F)c(CN2[C@@H](C)CC[C@H](c3ccccc3)S2(=O)=O)cc1F` (stereo in doubt) [Compound 58, N-[1-[2,5-difluoro-4-[[(3S,6R)-3-methyl-1,1-dioxo-6-phenyl-thiazinan-2-yl]methyl]phenyl]ethyl]-1-methyl-pyrazole-3-carboxamide], 254 nM. In the case of `CC(NC(=O)c1c[nH]cn1)c1cc(F)c(CN2[C@@H](C)CC[C@H](c3ccccc3)S2(=O)=O)cc1F` (stereo in doubt) [Compound 59, N-[1-[2,5-difluoro-4-[[(3S,6R)-3-methyl-1,1-dioxo-6-phenyl-thiazinan-2-yl]methyl]phenyl]ethyl]-1H-imidazole-4-carboxamide] it was 93 nM; in that of `Cc1nocc1C(=O)NC(C)c1cc(F)c(CN2[C@@H](C)CC[C@H](c3ccccc3)S2(=O)=O)cc1F` (stereo in doubt) [Compound 60, N-[1-[2,5-difluoro-4-[[(3S,6R)-3-methyl-1,1-dioxo-6-phenyl-thiazinan-2-yl]methyl]phenyl]ethyl]-3-methyl-isoxazole-4-carboxamide], 54.5 nM; in that of `CC(NC(=O)c1cnn(C)c1)c1cc(F)c(CN2[C@@H](C)CC[C@H](c3ccccc3)S2(=O)=O)cc1F` (stereo in doubt) [Compound 61, N-[1-[2,5-difluoro-4-[[(3S,6R)-3-methyl-1,1-dioxo-6-phenyl-thiazinan-2-yl]methyl]phenyl]ethyl]-1-methyl-pyrazole-4-carboxamide], 14 nM. The figure for `CC(NC(=O)c1cn(C)cn1)c1cc(F)c(CN2[C@@H](C)CC[C@H](c3ccccc3)S2(=O)=O)cc1F` (stereo in doubt) [Compound 62, N-[1-[2,5-difluoro-4-[[(3S,6R)-3-methyl-1,1-dioxo-6-phenyl-thiazinan-2-yl]methyl]phenyl]ethyl]-1-methyl-imidazole-4-carboxamide] is 389 nM. `CC(NC(=O)c1cncnc1)c1cc(F)c(CN2[C@@H](C)CC[C@H](c3ccccc3)S2(=O)=O)cc1F` (stereo in doubt) [Compound 63, N-[1-[2,5-difluoro-4-[[(3S,6R)-3-methyl-1,1-dioxo-6-phenyl-thiazinan-2-yl]methyl]phenyl]ethyl]pyrimidine-5-carboxamide] had an IC50 of 8.3 nM. Against the preceding compound, the IC50 is about 47-fold lower. In the case of `Cc1ncoc1C(=O)NC(C)c1cc(F)c(CN2[C@@H](C)CC[C@H](c3ccccc3)S2(=O)=O)cc1F` (stereo in doubt) [Compound 64, N-[1-[2,5-difluoro-4-[[(3S,6R)-3-methyl-1,1-dioxo-6-phenyl-thiazinan-2-yl]methyl]phenyl]ethyl]-4-methyl-oxazole-5-carboxamide] it was 231 nM; in that of `CC(NC(=O)c1cocn1)c1cc(F)c(CN2[C@@H](C)CC[C@H](c3ccccc3)S2(=O)=O)cc1F` (stereo in doubt) [Compound 65, N-[1-[2,5-difluoro-4-[[(3S,6R)-3-methyl-1,1-dioxo-6-phenyl-thiazinan-2-yl]methyl]phenyl]ethyl]oxazole-4-carboxamide], 167 nM. Take `Cc1cc(C(=O)NC(C)c2cc(F)c(CN3[C@@H](C)CC[C@H](c4ccccc4)S3(=O)=O)cc2F)on1` (stereo in doubt) [Compound 67, N-[1-[2,5-difluoro-4-[[(3S,6R)-3-methyl-1,1-dioxo-6-phenyl-thiazinan-2-yl]methyl]phenyl]ethyl]-3-methyl-isoxazole-5-carboxamide]: the IC50 was 6.5 nM. The figure for `CC(NC(=O)c1cc[nH]n1)c1cc(F)c(CN2[C@@H](C)CC[C@H](c3ccccc3)S2(=O)=O)cc1F` (stereo in doubt) [Compound 68, N-[1-[2,5-difluoro-4-[[(3S,6R)-3-methyl-1,1-dioxo-6-phenyl-thiazinan-2-yl]methyl]phenyl]ethyl]-1H-pyrazole-3-carboxamide] is 83.3 nM. The figure for `CC(NC(=O)c1ccnn1C)c1cc(F)c(CN2[C@@H](C)CC[C@H](c3ccccc3)S2(=O)=O)cc1F` (stereo in doubt) [Compound 69, N-[1-[2,5-difluoro-4-[[(3S,6R)-3-methyl-1,1-dioxo-6-phenyl-thiazinan-2-yl]methyl]phenyl]ethyl]-2-methyl-pyrazole-3-carboxamide] is 74.5 nM; for `CC(NC(=O)c1nc(N)n[nH]1)c1cc(F)c(CN2[C@@H](C)CC[C@H](c3ccccc3)S2(=O)=O)cc1F` (stereo in doubt) [Compound 71, 3-amino-N-[1-[2,5-difluoro-4-[[(3S,6R)-3-methyl-1,1-dioxo-6-phenyl-thiazinan-2-yl]methyl]phenyl]ethyl]-1H-1,2,4-triazole-5-carboxamide] it is 47.9 nM; for `CC(NC(=O)c1cncs1)c1cc(F)c(CN2[C@@H](C)CC[C@H](c3ccccc3)S2(=O)=O)cc1F` (stereo in doubt) [Compound 72, N-[1-[2,5-difluoro-4-[[(3S,6R)-3-methyl-1,1-dioxo-6-phenyl-thiazinan-2-yl]methyl]phenyl]ethyl]thiazole-5-carboxamide] it is 6.3 nM.
